The experiment deals with S1P1 receptor (Homo sapiens, UniProt P21453). The experiment in a line: 35S-GTPγS binding, membranes from CHO cells expressing S1P1. The class given is biochemical. The conditions noted are these: CHO cell membranes expressing S1P1. The method, then:
Receptor binding assay: Membranes were prepared from CHO cells expressing S1P1 or S1P3 for use in ligand and 35S-GTPTS binding studies. Cells were suspended in 50 mM TRIS, pH 7.4, 2 mM EDTA, 250 mM Sucrose (buffer A) and 1× Complete protease inhibitor cocktail (Roche), and disrupted at 4° C. by nitrogen decompression using a cell disruption bomb (Parr Instrument). Following centrifugation at 1000 RPM for 10 min at 4° C., the supernatant was suspended in buffer A and centrifuged again at 19000 RPM for 60 min at 4° C. The pellet was then suspended in 10 mM HEPES, pH 7.4, 1 mM EDTA, 250 mM Sucrose (Buffer B), and 1× Complete EDTA-free protease inhibitor cocktail and homogenized using a potter. Membranes were flash frozen in liquid nitrogen and stored at −80° C. [33P]sphingosine 1-phosphate (3000 Ci/mmol; American Radiolabeled Chemicals, Inc.) was added to test compounds in DMSO. Membranes and WGA SPA beads (GE Healthcare) were added to give a final volume of 100 μl in 96-well plates with assay concentrations of […] [33P]sphingosine 1-phosphate (respectively for S1P1 or S1P3), 50 mM HEPES, pH 7.5, 5 mM MgCl2, 100 mM NaCl, 0.4% fatty acid-free BSA, 1-5 μg/well of proteins and 100 μg/well of WGA SPA beads. Binding was performed for 60 min at room temperature on a shaker and bound radioactivity was measured on a PerkinElmer 1450 MicroBeta counter. Specific binding was calculated by subtracting remaining radioactivity in the presence of 1000-fold excess of unlabeled S1P. Binding data were analyzed using the GraphPad Prism program.
Measurements of ^35S-GTPγS Binding: Membranes (1 to 10 μg protein) prepared as described above, were incubated in 96-well Scintiplates (PerkinElmer) with test compounds diluted in DMSO, in 180 μl of 20 mM HEPES, pH 7.4, 10 mM MgCl2, 2 μg/well Saponin, 0.2% fatty acid free BSA (Assay buffer), 140 mM NaCl and 1.7 μM GDP. The assay was initiated with the addition of 20 μl of 1.5 nM [35S]-GTPγS (1100 Ci/mmol; GE Healthcare) in assay buffer. After 60 min incubation at 30° C. on a shaker, plates were centrifuged for 10 min at 2000 RPM. Supernatant was discarded and membrane bound radioactivity was measured on a PerkinElmer 1450 MicroBeta counter. Triplicate samples were averaged and expressed as response relative to S1P activation in absence of compound (n=2).

Counter-ions that a name gives are not always drawn.

Broadly, the EC50 is the concentration that produces a half-maximal response.

S1P1 receptor, sequence (P21453 whole entry): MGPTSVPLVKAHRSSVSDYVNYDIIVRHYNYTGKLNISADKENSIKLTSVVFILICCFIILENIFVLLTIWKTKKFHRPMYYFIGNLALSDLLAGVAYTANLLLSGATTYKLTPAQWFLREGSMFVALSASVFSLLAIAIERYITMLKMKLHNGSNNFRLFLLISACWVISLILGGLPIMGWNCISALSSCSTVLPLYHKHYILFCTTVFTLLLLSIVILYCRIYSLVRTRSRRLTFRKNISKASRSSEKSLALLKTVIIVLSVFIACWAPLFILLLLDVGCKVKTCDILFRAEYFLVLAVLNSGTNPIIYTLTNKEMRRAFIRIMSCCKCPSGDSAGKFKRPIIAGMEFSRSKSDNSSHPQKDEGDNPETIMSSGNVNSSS

`CN(C)Cc1cccc(-c2noc(-c3nnn(-c4ccccc4F)c3-c3ccncc3)n2)c1` [Example 94, 1-(3-{5-[1-(2-fluorophenyl)-5-pyridin-4-yl-1H-1,2,3-triazol-4-yl]-1,2,4-oxadiazol-3-yl}phenyl)-N,N-dimethylmethanamine] displayed an EC50 of 226 nM.

`CCN1CCc2ccc(-c3noc(-c4nnn(-c5ccccc5F)c4-c4ccncc4)n3)cc2C1` [Example 154, 2-ethyl-7-{5-[1-(2-fluorophenyl)-5-pyridin-4-yl-1H-1,2,3-triazol-4-yl]-1,2,4-oxadiazol-3-yl}-1,2,3,4-tetrahydroisoquinoline] had an EC50 of 918 nM. With `OCCc1ccc(-c2noc(-c3nnn(-c4ccccc4F)c3-c3ccncc3)n2)cc1` [Example 150, 2-(4-{5-[1(2-fluorophenyl)-5-pyridin-4-yl-1H-1,2,3-triazol-4-yl]-1,2,4-oxadiazol-3-yl}phenyl)ethanol], the response was half-maximal at 43 nM (EC50). Against the preceding compound, the EC50 is about 21-fold lower. `Oc1cccc(-c2noc(-c3nnn(-c4ccccc4F)c3-c3ccncc3)n2)c1` [Example 124, 3-{5-[1-(2-fluorophenyl)-5-pyridin-4-yl-1H-1,2,3-triazol-4-yl]-1,2,4-oxadiazol-3-yl}phenol]: the EC50 was found to be 23 nM. This EC50 lies about 1.9-fold lower than the previous one.

Compound `Fc1ccccc1-n1nnc(-c2nc(-c3ccc4c(c3)CNCC4)no2)c1-c1ccncc1` [Example 105, 7-{5-[1-(2-fluorophenyl)-5-pyridin-4-yl-1H-1,2,3-triazol-4-yl]-1,2,4-oxadiazol-3-yl}-1,2,3,4-tetrahydroisoquinoline] registered an EC50 of 26 nM. The EC50 values of the last two compounds are within 1.5-fold of each other. Regarding `O=C(O)[C@H]1CC[C@H](NCc2ccc(-c3noc(-c4nnn(-c5ccccc5F)c4-c4ccncc4)n3)cc2)CC1` [Example 168, (trans)-4-(4-(5-(1-(2-fluorophenyl)-5-(pyridin-4-yl)-1H-1,2,3-triazol-4-yl)-1,2,4-oxadiazol-3-yl)benzylamino)cyclohexanecarboxylic acid], the EC50 worked out at 16 nM. This EC50 is about 1.6-fold lower than that of the compound before.

In turn, `Fc1ccccc1-n1nnc(-c2nc(-c3ccc(C(F)(F)F)cc3)no2)c1-c1ccncc1` [Example 109, 4-(1-(2-fluorophenyl)-4-{3-[4-(trifluoromethyl)phenyl]-1,2,4-oxadiazol-5-yl}-1H-1,2,3-triazol-5-yl)pyridine] gave an EC50 of 402 nM. With `Fc1ccccc1-n1nnc(-c2nc(-c3ccc(CN4CC[C@H](F)C4)cc3)no2)c1-c1ccncc1` [Example 167, 4-{1-(2-fluorophenyl)-4-[3-(4-{[(3S)-3-fluoropyrrolidin-1-yl]methyl}phenyl)-1,2,4-oxadiazol-5-yl]-1H-1,2,3-triazol-5-yl}pyridine] the figure was 15 nM; with `OCC1CN(Cc2ccc(-c3noc(-c4nnn(-c5ccccc5F)c4-c4ccncc4)n3)cc2)CCO1` (centres unmarked) [Example 143, [4-(4-{5-[1-(2-fluorophenyl)-5-pyridin-4-yl-1H-1,2,3-triazol-4-yl]-1,2,4-oxadiazol-3-yl}benzyl)morpholin-2-yl]methanol], 118 nM.

The compound `COCCN(C)Cc1ccc(-c2noc(-c3nnn(-c4ccccc4F)c3-c3ccncc3)n2)cc1` [Example 166, N-(4-(5-(1-(2-fluorophenyl)-5-(pyridin-4-yl)-1H-1,2,3-triazol-4-yl)-1,2,4-oxadiazol-3-yl)benzyl)-2-methoxy-N-methylethanamine] displayed an EC50 of 218 nM. Compound `CS(=O)(=O)c1cccc(-c2noc(-c3nnn(-c4ccccc4F)c3-c3ccccn3)n2)c1` [Example 84, 2-(1-(2-fluorophenyl)-4-{3-[3-(methylsulfonyl)phenyl]-1,2,4-oxadiazol-5-yl}-1H-1,2,3-triazol-5-yl)pyridine] displayed an EC50 of 418 nM. This EC50 is about 1.9-fold higher than that of the compound before. The compound `CN(CCO)Cc1ccc(-c2noc(-c3nnn(-c4ccccc4F)c3-c3ccncc3)n2)cc1` [Example 144, 2-[(4-{5-[1-(2-fluorophenyl)-5-pyridin-4-yl-1H-1,2,3-triazol-4-yl]-1,2,4-oxadiazol-3-yl}benzyl)(methyl)amino]ethanol] displayed an EC50 of 108 nM.

On to `O=C(O)C1CCCN(Cc2ccc(-c3noc(-c4nnn(-c5ccccc5F)c4-c4ccncc4)n3)cc2)C1` (centres unmarked) [Example 158, 1-(4-{5-[1-(2-fluorophenyl)-5-pyridin-4-yl-1H-1,2,3-triazol-4-yl]-1,2,4-oxadiazol-3-yl}benzyl)piperidine-3-carboxylic acid], for which the EC50 was found to be 56 nM. Turning to `COc1ccc(F)cc1-c1noc(-c2nnn(-c3ccccc3F)c2-c2ccncc2)n1` [Example 122, 4-[4-[3-(5-fluoro-2-methoxyphenyl)-1,2,4-oxadiazol-5-yl]-1-(2-fluorophenyl)-1H-1,2,3-triazol-5-yl]pyridine], the concentration for a half-maximal effect (EC50) stood at 56 nM. In turn, `OCCNCc1cccc(-c2noc(-c3nnn(-c4ccccc4F)c3-c3ccncc3)n2)c1` [Example 132, 2-[(3-{5-[1(2-fluorophenyl)-5-pyridin-4-yl-1H-1,2,3-triazol-4-yl]-1,2,4-oxadiazol-3-yl}benzyl)amino]ethanol formate] displayed an EC50 of 383 nM. `COCc1c(-c2nc(-c3cccc4[nH]ccc34)no2)nnn1-c1ccccc1F` [Example 90, 4-{5-[1-(2-fluorophenyl)-5-(methoxymethyl)-1H-1,2,3-triazol-4-yl]-1,2,4-oxadiazol-3-yl}-1H-indole] yielded an EC50 of 204 nM. `O=C(O)[C@H]1CCC[C@H]1NCc1ccc(-c2noc(-c3nnn(-c4ccccc4F)c3-c3ccncc3)n2)cc1` [Example 177, (1S,2R)-2-[(4-{5-[1-(2-fluorophenyl)-5-pyridin-4-yl-1H-1,2,3-triazol-4-yl]-1,2,4-oxadiazol-3-yl}benzyl)amino]cyclopentanecarboxylic acid] displayed an EC50 of 742 nM. This EC50 is about 3.6-fold higher than that of the compound before. Regarding `CC(C)(NCc1ccc(-c2noc(-c3nnn(-c4ccccc4F)c3-c3ccncc3)n2)cc1)C(=O)O` [Example 174, N-(4-{5-[1-(2-fluorophenyl)-5-pyridin-4-yl-1H-1,2,3-triazol-4-yl]-1,2,4-oxadiazol-3-yl}benzyl)-2-methylalanine], the EC50 came out at 162 nM. Compared with the last compound, the EC50 is about 4.6-fold lower. With `Fc1ccccc1-n1nnc(-c2nc(-c3ccc(C(F)(F)F)nc3)no2)c1-c1ccncc1` [Example 120, 5-{5-[1-(2-fluorophenyl)-5-pyridin-4-yl-1H-1,2,3-triazol-4-yl]-1,2,4-oxadiazol-3-yl}-2-(trifluoromethyl)pyridine] the figure was 754 nM. Regarding `Fc1ccccc1-n1nnc(-c2nc(-c3ccc4c(c3)NCC4)no2)c1-c1ccncc1` [Example 157, 6-{5-[1-(2-fluorophenyl)-5-pyridin-4-yl-1H-1,2,3-triazol-4-yl]-1,2,4-oxadiazol-3-yl}indoline], the response was half-maximal at 218 nM (EC50).

The compound `Fc1ccccc1-n1nnc(-c2nc(-c3ccc4[nH]ccc4c3)no2)c1-c1ccncc1` [Example 43, 5-{5-[1-(2-fluorophenyl)-5-pyridin-4-yl-1H-1,2,3-triazol-4-yl]-1,2,4-oxadiazol-3-yl}-1H-indole] yielded an EC50 of 19 nM. This EC50 is about 11-fold lower than that of the compound before. The value for `OC1CCN(Cc2cccc(-c3noc(-c4nnn(-c5ccccc5F)c4-c4ccncc4)n3)c2)C1` (centres unmarked) [Example 134, 1-(3-{5-[1-(2-fluorophenyl)-5-pyridin-4-yl-1H-1,2,3-triazol-4-yl]-1,2,4-oxadiazol-3-yl}benzyl)pyrrolidin-3-ol] was 758 nM.

`Fc1ccccc1-n1nnc(-c2nc(-c3cccc(Cn4ccnc4)c3)no2)c1-c1ccncc1` [Example 82, 4-(1-(2-fluorophenyl)-4-{3-[3-(1H-imidazol-1-ylmethyl)phenyl]-1,2,4-oxadiazol-5-yl}-1H-1,2,3-triazol-5-yl)pyridine] gave an EC50 of 176 nM. Compound `Fc1ccccc1-n1nnc(-c2nc(-c3cccc(C(F)(F)F)c3)no2)c1-c1ccncc1` [Example 103, 4-(1-(2-fluorophenyl)-4-{3-[3-(trifluoromethyl)phenyl]-1,2,4-oxadiazol-5-yl}-1H-1,2,3-triazol-5-yl)pyridine] yielded an EC50 of 17 nM. This EC50 lies about 10-fold lower than the previous one. `Fc1ccc(F)c(-c2noc(-c3nnn(-c4ccccc4F)c3C3CCCO3)n2)c1` (centres unmarked) [Example 71, 3-(2,5-difluorophenyl)-5-[1-(2-fluorophenyl)-5-(tetrahydrofuran-2-yl)-1H-1,2,3-triazol-4-yl]-1,2,4-oxadiazole] displayed an EC50 of 176 nM. Compound `Fc1ccccc1-n1nnc(-c2nc(-c3cccc(Cn4cncn4)c3)no2)c1-c1ccccn1` [Example 86, 2-(1-(2-fluorophenyl)-4-{3-[3-(1H-1,2,4-triazol-1-ylmethyl)phenyl]-1,2,4-oxadiazol-5-yl}-1H-1,2,3-triazol-5-yl)pyridine] registered an EC50 of 751 nM.
